# Experimental data as given in patent US12440451B2, “Compositions and methods using an epigenetic inhibitor” (DANA-FARBER CANCER INSTITUTE, INC., priority 2017, dated 2025).
# Legend:
# Format in all cases: cell-based, mouse
# OT-I+ CD8+ T cells = test: in vitro CD8+ T cell activation assay with SIINFEKL-pulsed BMDCs, flow cytometry for effector markers
# Excerpt: To screen for compounds that may inhibit epigenetic enzymes, an in vitro model of T cell activation by antigen-loaded antigen presenting cells (APCs) was used. CD8^+ T cells were harvested from OT-I T cell receptor transgenic mice. OT-I mice are transgenic for the mouse Tera-V2 and Torb-V5 genes, which form a T cell receptor that recognizes the SIINFEKL peptide (SEQ ID NO: 1) epitope of chicken ovalbumin presented in the context of the Kb MHC I molecule. This allows testing of T cell activation in response to addition of SIINFEKL peptide (SEQ ID NO: 1). The APCs used for T cell activation were bone marrow-derived dendritic cells (BMDCs) harvested from congenic H-2b-MHC haplotype C57BL/6 (B6) mice.
# To set up the screen, BMDCs were harvested, irradiated, and seeded into 96-well tissue culture plates (5×10^4/well) in the presence of 200 nM SIINFEKL peptide (SEQ ID NO: 1) for antigen loading. OT-I^+ CD8^+ T cells were freshly isolated from peripheral lymphoid organs of OT-I mice and added to the BMDCs in 96-well plates (5×10^4/well). One hundred epigenetic inhibitor drugs from a custom library provided by Dr. David Fisher (Massachusetts General Hospital, Boston, MA) were added separately to individual wells for a final concentration of 10 μM or 1 μM. Negative (non-drug treated) wells were given an equivalent volume of DMSO vehicle.
# The OT-I^+ CD8^+ T cells were cultured for 10 days at 37° C., with media changes at days 3, 5, and 7. After 10 days, T cells were collected from the 96-well plates and analyzed by flow cytometry for markers of cell viability, effector differentiation, cytokine secretion, and cytotoxicity.
# For each marker assessed, a change of greater than two standard deviations from the mean of the negative control wells was deemed a significant change.
# To validate the phenotypic changes observed with RGFP966 treatment during the screen, the in vitro activation assay was repeated to compare T cells treated with RGFP966 with vehicle-treated control cells. OT-I^+ CD8^+ T cells were activated with SIINFEKL-pulsed BMDCs as in Example 1 for 7 days, with media changes at days 3 and 5. T cells were then collected and analyzed by flow cytometry for markers of effector differentiation (CD25, PD-1), cytokine secretion (IFN-γ, TNF-α, IL-2), and cytotoxicity (granzyme B).
# An additional study was done on the effects of RGFP966 on T cell expression of phenotypic markers of CD8^+ effector differentiation. T cells were treated with RGFP966 and vehicle using the in vitro activation assay and flow cytometry techniques described above. OT-I^+ CD8^+ T cells were activated with SIINFEKL-pulsed BMDCs (see above) for 7 days, with media changes at days 3 and 5. T cells were collected and analyzed by flow cytometry for markers of effector differentiation (CD25, PD-1), cytokine secretion (IFN-γ, TNF-α, IL-2), and cytotoxicity (granzyme B).
# OT-I^+ CD8^+ T cells were activated with antigen-pulsed BMDCs as described above, and dosed with RGFP966 for different durations of time as depicted in the schematic diagram of FIG. 7A: dose duration A of RGFP966 exposure was from day 0 to day 7 of co-culture: dose duration B of RGFP966 exposure was from day 3 to day 7 of co-culture: dose duration C of RGFP966 exposure was from day 5 to day 7 of co-culture: dose duration D of RGFP966 exposure was from day 0 to day 3 of co-culture: dose duration E of RGFP966 exposure was from day 0 to day 5 of co-culture. These time windows (dose durations A-E) correspond roughly to the early (day 0 to 3), mid-(day 3 to 5), and late (day 5 to 7) phases of T cell activation described in the literature.
# T cells were thoroughly washed with culture media during media changes at a transition point (i.e. drug to no drug or vice versa). T cells in samples D and E (light gray arrows) were re-suspended in conditioned media from parallel cultures of DMSO vehicle-treated T cells in order to maintain similar levels of T cell activating cytokines in the media. […]
# H3K27-ac in CD8+ T cells = test: H3K27-ac ChIP-sequencing of activated CD8+ T cells; details: days 5 and 7 post-activation
# Procedure: ChIP-sequencing was then performed to survey the genomic landscape of H3K27 acetylation in the absence or the presence of HDAC3 activity on days 5 and 7 post-activation using the same in vitro activation co-culture system as in as described in FIG. 1 and Example 1 above.
# FIGS. 9C-9H show H3K27-ac ChIP-sequence tracks, from top to bottom: naïve CD8^+ T cells (day 0): control-treated cells, day 5 post-activation: RGFP966-treated cells, day 5 post-activation: control-treated cells, day 7 post-activation: RGFP966-treated cells, day 7 post-activation. Arrows under gene names indicate direction of transcription. Tracks were visualized with the IGV genome browser (Broad Institute, MA).
# [1] = system: H3K9-Ac and H3K27-Ac in CD8+ T cells; test: ChIP-qPCR for H3K9ac and H3K27ac at promoter regions of 32 effector function genes; details: 3 μM, 5 days
# Procedure: Chromatin was extracted from sorted CD8^+ T cells activated with or without RGFP966 for 5 days as described in FIG. 1 and Example 1 above, and chromatin immunoprecipitation (ChIP) was performed for H3K9ac and H3K27 markers.
# Immunoprecipitated chromatin was analyzed using quantitative real-time PCR (qPCR) with primer probes for the promoter regions of a custom set of 32 genes known to be associated with various aspects of CD8^+ T cell effector function (effector cytokines, cytotoxicity, regulatory transcription factors, as well as positive and negative controls for data quality control). […] Histogram bars are presented in pairs for each marker, with the left hand bar of each pair (gray) representing data from untreated CD8^+ T cells and the right hand bar of each pair (black) representing data from CD8^+ T cells treated with 3 μM RGF966.
# [2] = 10 μM, 7 days activation, relative to DMSO-treated cells
compound,measurement,setting,value
Nc1cc(F)ccc1NC(=O)/C=C/c1cnn(C/C=C/c2ccccc2)c1 [RGFP966],TNF-α expression measured in pg/mL,"OT-I+ CD8+ T cells; 10 μM compared with 1 μM or vehicle, FIG. 2J",increased expression of the activation marker TNF-α
same,CD25 expression,OT-I+ CD8+ T cells; [2],higher levels
same,IFN-γ expression,OT-I+ CD8+ T cells; [2],higher levels
same,IL-2 expression,OT-I+ CD8+ T cells; [2],higher levels
same,PD-1 expression,OT-I+ CD8+ T cells; [2],higher levels
same,TNF-α expression,OT-I+ CD8+ T cells; [2],higher levels
same,granzyme B expression,OT-I+ CD8+ T cells; [2],more of the cytotoxic effector protein granzyme B
same,expression of CD25 and TNF-α when the drug is washed out midway,"OT-I+ CD8+ T cells; 10 μM, exposure day 0 to 3 or day 0 to 5, relative to all 7 days",did not reduce the expression of CD25 and TNF-α
same,"expression of markers of T cell activation (CD25, TNF-α) when dosing starts at later time points","OT-I+ CD8+ T cells; 10 μM, exposure from day 3 or day 5 to day 7",reduce the expression of markers of T cell activation
same,expression of CD44 and CD62L,"OT-I+ CD8+ T cells; 10 μM, flow cytometry, FIG. 2A, vs vehicle",high expression of CD62L and intermediate to high expression of CD44
same,CD107a positive cells,"OT-I+ CD8+ T cells; 10 μM, flow cytometry, FIG. 2B, vs vehicle",many more CD107a positive cells than the vehicle controls
same,TNF-α positive cells,"OT-I+ CD8+ T cells; 10 μM, flow cytometry, FIG. 2C, vs untreated",larger number of TNF-α positive cells than the untreated T cells
same,effector phenotype of CD8+ T cells in the secondary screen,"OT-I+ CD8+ T cells; 10 μM, screen of HDAC inhibitors",consistently augmented the effector phenotype
same,dose sufficient to augment the effector phenotype of CD8+ T cells,"OT-I+ CD8+ T cells; in vitro activation, titration 0, 1, 3, 5 μM",3 µM
same,dose at which the dose-dependent augmentation of the T cell effector phenotype begins,"OT-I+ CD8+ T cells; titration 0, 1, 3, 5 μM, 7 days",greater than 1 μM
same,percentage of actively proliferating cells measured by Ki-67 expression,"OT-I+ CD8+ T cells; with increasing drug dose, titration 0, 1, 3, 5 μM",reduction in the percentage of actively proliferating cells
same,"H3K27-ac at GzmB, Fasl, ID2, PRDM1 and TBX21",H3K27-ac in CD8+ T cells,increased H3K27-ac
same,H3K27-ac at RUNX3,H3K27-ac in CD8+ T cells,increased H3K27-ac
same,"H3K27ac at loci of effector cytokines, EOMES and BCL6",H3K27-ac in CD8+ T cells; data not shown,no significant changes
same,"histone acetylation at GZMB, FASL, TBX21, PRDM1 and ID2",[1],most significant changes in histone acetylation
same,"H3K9 and H3K27 acetylation at promoters of IFN-γ, TNF-α and IL-2",[1]; not always significant,generally had increased H3K9 and H3K27 acetylation
